This is an account of results in doi:10.1101/2023.11.24.568596v1 (biorxiv, 2023).

Settings in all cases: binder
For experiment [1], the target named is PAK1 (Homo sapiens, UniProt Q13153).
The target of experiment [2] is GSK3B (Homo sapiens, UniProt P49841).
Experiment [3] addresses T1, CaMK4 (Homo sapiens, UniProt Q16566).
T1 sequence (Q16566 1-473): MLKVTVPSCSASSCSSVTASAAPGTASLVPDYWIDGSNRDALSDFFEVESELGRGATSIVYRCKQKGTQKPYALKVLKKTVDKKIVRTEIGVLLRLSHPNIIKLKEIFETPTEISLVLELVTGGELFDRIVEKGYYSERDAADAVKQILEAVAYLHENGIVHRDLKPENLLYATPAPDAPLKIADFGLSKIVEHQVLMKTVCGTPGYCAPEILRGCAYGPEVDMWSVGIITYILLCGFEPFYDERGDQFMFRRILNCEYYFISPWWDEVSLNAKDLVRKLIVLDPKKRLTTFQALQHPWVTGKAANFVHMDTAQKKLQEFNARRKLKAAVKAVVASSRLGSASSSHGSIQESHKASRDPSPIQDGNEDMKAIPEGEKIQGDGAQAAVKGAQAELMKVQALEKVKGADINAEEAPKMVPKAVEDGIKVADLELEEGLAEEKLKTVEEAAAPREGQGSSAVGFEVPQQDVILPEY

The target of experiment [4] is PCTAIRE1 (Homo sapiens, UniProt Q00536).
Chain of PCTAIRE1 (Q00536 whole entry): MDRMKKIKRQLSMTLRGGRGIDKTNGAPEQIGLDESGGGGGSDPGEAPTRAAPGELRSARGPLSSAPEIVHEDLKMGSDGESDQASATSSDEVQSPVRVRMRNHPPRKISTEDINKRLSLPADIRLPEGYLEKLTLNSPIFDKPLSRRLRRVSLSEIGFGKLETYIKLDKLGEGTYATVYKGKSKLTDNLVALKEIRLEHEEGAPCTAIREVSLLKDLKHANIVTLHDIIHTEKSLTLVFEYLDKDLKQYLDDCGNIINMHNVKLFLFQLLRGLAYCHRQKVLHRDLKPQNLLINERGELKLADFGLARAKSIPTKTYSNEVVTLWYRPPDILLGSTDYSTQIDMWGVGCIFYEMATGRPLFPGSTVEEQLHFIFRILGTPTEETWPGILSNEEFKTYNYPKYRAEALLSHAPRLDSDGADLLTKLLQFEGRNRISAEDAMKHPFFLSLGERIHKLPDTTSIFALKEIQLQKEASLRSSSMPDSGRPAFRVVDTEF
Experiment [5] deals with EphA2 (Homo sapiens, UniProt P29317).
Chain of EphA2 (P29317 whole entry): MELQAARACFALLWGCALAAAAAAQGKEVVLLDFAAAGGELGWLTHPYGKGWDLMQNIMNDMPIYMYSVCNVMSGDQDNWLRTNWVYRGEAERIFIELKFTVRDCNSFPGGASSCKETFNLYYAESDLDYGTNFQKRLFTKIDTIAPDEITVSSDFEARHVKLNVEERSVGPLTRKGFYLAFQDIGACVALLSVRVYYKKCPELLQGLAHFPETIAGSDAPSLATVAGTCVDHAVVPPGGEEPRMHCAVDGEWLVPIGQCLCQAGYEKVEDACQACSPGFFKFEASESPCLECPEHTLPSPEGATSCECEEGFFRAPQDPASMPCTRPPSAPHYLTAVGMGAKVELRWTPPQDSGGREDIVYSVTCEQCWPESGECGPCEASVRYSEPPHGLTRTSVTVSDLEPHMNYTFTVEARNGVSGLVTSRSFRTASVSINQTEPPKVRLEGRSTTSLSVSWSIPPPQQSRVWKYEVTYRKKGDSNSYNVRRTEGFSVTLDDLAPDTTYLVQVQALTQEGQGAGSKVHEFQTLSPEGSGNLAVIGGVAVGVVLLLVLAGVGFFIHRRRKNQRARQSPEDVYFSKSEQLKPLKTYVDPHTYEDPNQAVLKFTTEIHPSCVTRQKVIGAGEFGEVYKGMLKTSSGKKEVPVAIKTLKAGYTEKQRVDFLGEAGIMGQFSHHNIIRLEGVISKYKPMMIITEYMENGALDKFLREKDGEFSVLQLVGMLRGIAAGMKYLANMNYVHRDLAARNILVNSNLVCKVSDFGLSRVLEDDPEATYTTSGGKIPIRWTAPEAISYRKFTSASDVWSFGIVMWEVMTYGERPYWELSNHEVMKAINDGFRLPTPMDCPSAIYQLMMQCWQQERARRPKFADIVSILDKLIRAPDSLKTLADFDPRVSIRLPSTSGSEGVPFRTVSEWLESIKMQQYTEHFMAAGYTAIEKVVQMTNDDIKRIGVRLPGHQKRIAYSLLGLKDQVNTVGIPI
Experiment [6] concerns the target T2, DMPK1 (Homo sapiens, UniProt Q09013).
T2 sequence (Q09013 1-629): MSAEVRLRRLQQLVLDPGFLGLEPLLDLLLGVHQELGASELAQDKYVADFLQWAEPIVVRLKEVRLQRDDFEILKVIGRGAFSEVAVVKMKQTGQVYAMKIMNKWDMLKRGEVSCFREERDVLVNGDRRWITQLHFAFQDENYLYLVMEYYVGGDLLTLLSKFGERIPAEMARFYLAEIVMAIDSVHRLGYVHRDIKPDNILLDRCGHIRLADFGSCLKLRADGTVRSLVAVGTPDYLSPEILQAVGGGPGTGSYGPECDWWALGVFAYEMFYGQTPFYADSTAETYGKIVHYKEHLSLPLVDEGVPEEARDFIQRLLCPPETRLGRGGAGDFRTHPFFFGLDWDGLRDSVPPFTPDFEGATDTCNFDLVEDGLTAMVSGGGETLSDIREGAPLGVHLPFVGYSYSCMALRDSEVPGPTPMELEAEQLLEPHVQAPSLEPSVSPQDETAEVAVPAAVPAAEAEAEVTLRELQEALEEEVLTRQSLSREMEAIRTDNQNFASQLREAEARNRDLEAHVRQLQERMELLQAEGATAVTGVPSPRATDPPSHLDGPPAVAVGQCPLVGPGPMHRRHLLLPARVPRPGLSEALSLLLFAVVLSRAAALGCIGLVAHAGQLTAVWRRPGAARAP

Experiment [7] addresses T3, MAP3K5 (Homo sapiens, UniProt Q99683).
T3 sequence (Q99683 1-1374): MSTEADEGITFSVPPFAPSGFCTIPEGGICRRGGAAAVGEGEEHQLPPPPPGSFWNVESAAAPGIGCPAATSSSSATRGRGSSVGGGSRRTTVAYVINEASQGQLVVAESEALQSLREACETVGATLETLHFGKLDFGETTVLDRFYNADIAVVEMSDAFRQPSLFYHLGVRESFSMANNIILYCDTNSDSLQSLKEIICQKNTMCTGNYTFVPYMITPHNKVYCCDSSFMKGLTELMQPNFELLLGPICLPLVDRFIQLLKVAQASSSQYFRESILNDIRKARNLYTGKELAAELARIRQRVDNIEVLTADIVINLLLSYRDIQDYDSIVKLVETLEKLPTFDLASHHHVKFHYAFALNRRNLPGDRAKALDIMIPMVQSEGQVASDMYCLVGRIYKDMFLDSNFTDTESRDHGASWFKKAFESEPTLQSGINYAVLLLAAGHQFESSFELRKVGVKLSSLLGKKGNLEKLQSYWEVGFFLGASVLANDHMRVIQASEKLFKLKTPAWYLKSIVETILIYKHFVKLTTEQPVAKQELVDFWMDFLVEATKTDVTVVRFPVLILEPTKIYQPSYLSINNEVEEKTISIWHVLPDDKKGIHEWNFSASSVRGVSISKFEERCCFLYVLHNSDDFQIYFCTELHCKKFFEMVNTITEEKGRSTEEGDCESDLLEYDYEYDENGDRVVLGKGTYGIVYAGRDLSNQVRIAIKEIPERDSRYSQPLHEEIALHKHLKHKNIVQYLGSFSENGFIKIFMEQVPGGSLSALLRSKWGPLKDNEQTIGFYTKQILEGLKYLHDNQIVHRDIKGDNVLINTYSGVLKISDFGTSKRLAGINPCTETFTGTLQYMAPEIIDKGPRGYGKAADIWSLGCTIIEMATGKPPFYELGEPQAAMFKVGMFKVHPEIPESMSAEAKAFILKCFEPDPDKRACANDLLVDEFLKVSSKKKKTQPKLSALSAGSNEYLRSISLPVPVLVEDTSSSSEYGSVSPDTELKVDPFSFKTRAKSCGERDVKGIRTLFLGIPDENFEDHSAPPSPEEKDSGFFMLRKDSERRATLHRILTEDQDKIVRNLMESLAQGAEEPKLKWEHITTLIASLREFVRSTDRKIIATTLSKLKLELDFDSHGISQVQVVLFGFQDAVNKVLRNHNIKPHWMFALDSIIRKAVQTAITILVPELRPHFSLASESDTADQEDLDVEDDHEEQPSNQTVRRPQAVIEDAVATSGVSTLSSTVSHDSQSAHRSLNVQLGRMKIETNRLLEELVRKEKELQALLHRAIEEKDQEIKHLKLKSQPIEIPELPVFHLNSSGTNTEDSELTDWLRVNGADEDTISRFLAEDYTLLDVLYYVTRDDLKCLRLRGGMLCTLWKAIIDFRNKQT

For experiment [8], the target named is AAK1 (Homo sapiens, UniProt Q2M2I8).
Chain of AAK1 (Q2M2I8 whole entry): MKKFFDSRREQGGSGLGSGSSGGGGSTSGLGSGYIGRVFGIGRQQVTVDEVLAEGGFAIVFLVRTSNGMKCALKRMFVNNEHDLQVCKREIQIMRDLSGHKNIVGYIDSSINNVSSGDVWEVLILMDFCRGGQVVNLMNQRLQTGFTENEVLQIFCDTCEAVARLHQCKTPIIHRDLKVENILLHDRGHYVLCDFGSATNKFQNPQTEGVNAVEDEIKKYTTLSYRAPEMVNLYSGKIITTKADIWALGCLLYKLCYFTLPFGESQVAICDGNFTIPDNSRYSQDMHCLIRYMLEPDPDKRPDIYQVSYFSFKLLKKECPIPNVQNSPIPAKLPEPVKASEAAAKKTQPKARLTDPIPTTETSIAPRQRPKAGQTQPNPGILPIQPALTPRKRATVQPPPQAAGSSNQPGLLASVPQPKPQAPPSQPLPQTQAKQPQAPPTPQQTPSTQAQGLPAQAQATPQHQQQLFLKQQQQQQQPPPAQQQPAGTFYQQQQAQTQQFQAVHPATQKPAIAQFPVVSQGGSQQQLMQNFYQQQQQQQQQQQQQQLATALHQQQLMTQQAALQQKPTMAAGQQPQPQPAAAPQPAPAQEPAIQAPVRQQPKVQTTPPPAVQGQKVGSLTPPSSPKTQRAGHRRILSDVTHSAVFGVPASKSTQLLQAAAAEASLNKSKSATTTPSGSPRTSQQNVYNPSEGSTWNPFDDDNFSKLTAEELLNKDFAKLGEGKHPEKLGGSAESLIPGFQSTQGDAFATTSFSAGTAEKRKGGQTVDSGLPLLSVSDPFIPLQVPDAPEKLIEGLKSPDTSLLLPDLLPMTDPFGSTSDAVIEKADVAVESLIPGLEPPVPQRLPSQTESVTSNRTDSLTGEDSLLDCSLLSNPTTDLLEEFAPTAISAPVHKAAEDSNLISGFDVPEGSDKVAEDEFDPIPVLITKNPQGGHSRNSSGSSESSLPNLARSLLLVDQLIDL

Chain of GSK3B (P49841 whole entry): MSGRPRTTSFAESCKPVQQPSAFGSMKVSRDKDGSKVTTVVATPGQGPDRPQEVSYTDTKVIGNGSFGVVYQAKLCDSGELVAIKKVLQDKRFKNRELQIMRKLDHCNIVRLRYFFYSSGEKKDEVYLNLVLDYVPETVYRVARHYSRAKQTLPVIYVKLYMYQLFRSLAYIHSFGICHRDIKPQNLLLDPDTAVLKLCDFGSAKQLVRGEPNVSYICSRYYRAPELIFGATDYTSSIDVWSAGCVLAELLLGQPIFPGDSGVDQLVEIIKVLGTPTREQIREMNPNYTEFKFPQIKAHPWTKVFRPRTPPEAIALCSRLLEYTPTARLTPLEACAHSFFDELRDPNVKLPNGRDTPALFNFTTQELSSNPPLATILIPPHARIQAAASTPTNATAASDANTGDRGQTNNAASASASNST
Chain of PAK1 (Q13153 whole entry): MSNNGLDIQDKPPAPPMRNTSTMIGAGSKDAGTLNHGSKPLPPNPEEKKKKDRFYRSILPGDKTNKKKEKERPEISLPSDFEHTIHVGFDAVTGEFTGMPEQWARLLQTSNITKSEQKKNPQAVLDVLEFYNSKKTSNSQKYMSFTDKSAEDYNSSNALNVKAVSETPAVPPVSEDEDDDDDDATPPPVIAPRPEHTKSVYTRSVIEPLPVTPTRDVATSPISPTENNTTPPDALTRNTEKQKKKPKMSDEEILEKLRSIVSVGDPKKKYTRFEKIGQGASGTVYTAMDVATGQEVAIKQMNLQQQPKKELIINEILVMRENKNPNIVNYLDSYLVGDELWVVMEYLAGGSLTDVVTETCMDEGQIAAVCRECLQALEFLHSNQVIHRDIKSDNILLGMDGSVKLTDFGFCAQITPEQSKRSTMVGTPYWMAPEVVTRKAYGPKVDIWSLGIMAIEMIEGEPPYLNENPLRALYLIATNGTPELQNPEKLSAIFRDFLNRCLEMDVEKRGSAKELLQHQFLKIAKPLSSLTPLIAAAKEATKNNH

Consider `CNc1ncc2cc(-c3ccc(-c4cccc(C)n4)cc3Cl)c(=O)n(CCCCN)c2n1` [compound 20, MRLW5], for which the “ΔTm MRLW5 (20)” value came to 7.5 °C in experiment [1]; 1.8 °C in experiment [2]; 2.9 °C in experiment [3]; 2.3 °C in experiment [4]; 3.5 °C in experiment [5]; 0.8 °C in experiment [6]. Besides, the “ΔTm MRLW5 (20)” value in experiment [7] is 12.3 °C; in experiment [8], 1.4 °C.
As to `CNc1ncc2cc(-c3ccc(-c4cccc(C)n4)cc3Cl)c(=O)n(CCC3CCNCC3)c2n1` [compound 22, 6-(2-Chloro-4-(6-methylpyridin-2-yl)phenyl)-2-(methylamino)-8-(2-(piperidin-4-yl)ethyl)pyrido[2,3-d]pyrimidin-7(8H)-one], the “ΔTm 22” value in experiment [1] is 8.6 °C; in experiment [2], 1.3 °C; in experiment [3], 4.8 °C; in experiment [4] it was 3.0 °C; in experiment [5] it was 2.3 °C; in experiment [6], -1.7 °C. Besides, the “ΔTm 22” value in experiment [7] was 12.0 °C; in experiment [8], 2.8 °C.
Turning to `CNc1ncc2cc(-c3ccc(-c4cccc(C)n4)cc3Cl)c(=O)n(C[C@H]3CC[C@H](N)CC3)c2n1` [compound 23, 23], the “ΔTm 23” value in experiment [1] was 8.9 °C; in experiment [2] it was 1.7 °C; in experiment [3] it was 6.9 °C; in experiment [4], 4.4 °C; in experiment [5], 3.2 °C; in experiment [6], -2.8 °C. The “ΔTm 23” value in experiment [7] turned out to be 12.4 °C; in experiment [8], 3.3 °C.
Regarding `Cc1cccc(-c2ccc(-c3cc4cnc(NC(CO)CO)nc4n(CCCCN)c3=O)c(Cl)c2)n1` [compound 24, 8-(4-Aminobutyl)-6-(2-chloro-4-(6-methylpyridin-2-yl)phenyl)-2-((1,3-dihydroxypropan-2-yl)amino)pyrido[2,3-d]pyrimidin-7(8H)-one], the “ΔTm MR24 (24)” value in experiment [1] was 6.9 °C; in experiment [2], 0.0 °C; in experiment [3], 1.2 °C; in experiment [4], 1.7 °C; in experiment [5] it was 0.6 °C; in experiment [6], -1.3 °C. In addition, the “ΔTm MR24 (24)” value in experiment [7] is 9.0 °C; in experiment [8], -0.4 °C.
As for `Cc1cccc(-c2ccc(-c3cc4cnc(NCCCc5ccc(N)cc5)nc4n(CCCCN)c3=O)c(Cl)c2)n1` [compound 25, 8-(4-Aminobutyl)-2-((3-(4-aminophenyl)propyl)amino)-6-(2-chloro-4-(6-methylpyridin-2-yl)phenyl)pyrido[2,3-d]pyrimidin-7(8H)-one], the “ΔTm 25” value in experiment [1] was 8.3 °C; in experiment [2] it was 3.8 °C; in experiment [3] it was 5.4 °C; in experiment [4], 4.5 °C; in experiment [5], 3.3 °C; in experiment [6] it was -2.7 °C. Further, the “ΔTm 25” value in experiment [7] was found to be 11.8 °C; in experiment [8], 0.8 °C.
As to `Cc1cccc(-c2ccc(-c3cc4cnc(NCCCN5CCOCC5)nc4n(CCCCN)c3=O)c(Cl)c2)n1` [compound 26, MR26], the “ΔTm MR26 (26)” value in experiment [1] is 5.7 °C; in experiment [2], 0.8 °C; in experiment [3], 2.2 °C; in experiment [4], 1.8 °C; in experiment [5] it was 4.2 °C; in experiment [6], -1.3 °C. The figures for the “ΔTm MR26 (26)” value in experiment [7] and in experiment [8] were 9.8 °C and -0.2 °C, respectively.
